The values below are quoted from earlier work in US8741809B2, “Liquid pyraclostrobin-containing crop protection formulations” (BASF SE, priority 2008, dated 2014).

The conditions of the series: at 20° C.
Turning to `CC(=O)c1ccccc1` [acetophenone], the “solubility of the respective solvent in water” value (“solubility” for short) is given as “(5.5 g/l)”.
Consider `OCc1ccccc1` [benzyl alcohol], for which the “solubility” value is listed as “(39 g/l)”.
Turning to `O=C1CCCCC1` [cyclohexanone], the “solubility” value was “(24 g/l)”.
